Measurements taken from US20050009005A1, “Methods of using quantitative lipid metabolome data” (Lipomics Technologies, Inc., priority 2001, published 2005).

System: de novo fatty acid synthesis
Assay: Lipid metabolite profile of plasma, heart, liver and inguinal adipose of CL316,243-treated mice (trial 2; Tables 7 and 8)
Format: in vivo
Settings: mean
From the text: It is understood that the described methods can be used to analyze lipid metabolites from other subjects, including particularly animals other than mice.
Mouse tissue and plasma samples were a generous donation to Lipomics Technologies, Inc., from Dr. Edward Leiter of the Jackson Laboratory (Bar Harbor, Me.). Samples included the plasma, heart, liver and inguinal adipose of mice treated with pharmaceuticals or their corresponding controls.
In trial 2, male, inbred NON mice were fed a control with or without the presence of the β-3 adrenergic agonist CL316,243 for four weeks (at 0.001% CL316,243 by weight in the dietary chow).
In both studies, five treated and five control mice were used. Following the treatments and the killing of the mice, tissues and plasma were taken, chilled to −80 ° C. and shipped to the analysis laboratory at Lipomics Technologies in a frozen state.
Tissue processing and lipid extraction, including provision of internal standards, was carried out essentially as described in Watkins et al. (J. Lipid Res. Papers in Press, 10.1184/jlf.M200169-JLF200, published August 16, 2002), and in co-owned international application PCT/US02/21426, entitled “GENERATING, VIEWING, INTERPRETING, AND UTILIZING A QUANTITATIVE DATABASE OF METABOLITES,” both of which are incorporated in their entirety herein by reference.
The separation of lipid classes was performed in some instance by preparative thin-layer chromatography (TLC). To remove any residual metal or other damaging contaminants on the TLC plates, each plate was washed prior to use. Washing the plates is a three-step process that involves impregnating each plate with ethylenediamine tetraacetic acid (EDTA) and rinsing the plates once with methanol and once with chloroform. Each plate is first impregnated with 1 mM EDTA, pH 5.5, by ascending development using the method of Ruiz (J. Lipid Res. 38, 1482-1489, 1997). After each plate was completely developed, it was dried in air overnight. Once dry, each plate was developed in methanol, dried, and developed in chloroform in the same direction as the development with EDTA. The washed plates were then dried in air. Just prior to use, each plate was activated by heating to 110° C. for 10 minutes.
To prepare the TLC chamber for chromatography, Whatman (Clifton, N.J.) filter paper was cut into 20×80-cm strips and wrapped around the inside wall of a 30×60×10-cm glass development chamber. One hundred milliliters of the appropriate mobile phase was added to the chamber, and the chambers were sealed and allowed to equilibrate. Chambers were considered equilibrated when the solvent front had completely ascended the filter paper. The mobile phase employed for the separation of phospholipid classes (lyso-phospholipids, sphingomyelin, phosphatidylcholine, phosphatidylserine, phosphatidylethanolamine and cardiolipin) was a modification of the solvent system described by Holub and Skeaf (“Nutritional regulation of cellular phosphatidylinositol,” in Methods in Enzymology, ed. Conn, P. M. (Academic Press, Inc., Orlando), pp. 234-243, 1987) consisting of chloroform/methanol/acetic acid/water (100:67:7:4, by volume).
For the separation of neutral lipid classes (free fatty acids, free sterols, triacylglycerides and cholesterol esters), a solvent system consisting of petroleum ether/diethyl ether/acetic acid (80:20:1, by volume) was used (Mangold, Thin Layer Chromatography—A Laboratory Handbook (Springer-Verlag, New York), 1969).
After the TLC plate was activated, the sample extracts were spotted onto the activated plate. As a general rule, samples were spotted at an estimated concentration such that no single lipid class was present at more than 25 jig per centimeter of plate width following chromatography. This ensured that the plate was not overloaded and minimized the risk of cross-contamination between lipid classes (cross-contamination is readily identified during sample analysis as each lipid class contains unique internal standards). […]

C[C@H](Cc1ccc2c(c1)OC(C(=O)[O-])(C(=O)[O-])O2)NC[C@H](O)c1cccc(Cl)c1.[Na+].[Na+] [CL316,243]
16:0 (Heart, PS/I): 302.1 nanomoles per gram
16:1n7 (Heart, PS/I): 48.6 nanomoles per gram
18:0 (Heart, PS/I): 2823.7 nanomoles per gram
18:1n7 (Heart, PS/I): 73.5 nanomoles per gram
18:1n9 (Heart, PS/I): 572.9 nanomoles per gram
14:0 (Heart, TAG): 78.8 nanomoles per gram
16:0 (Heart, TAG): 651.6 nanomoles per gram
16:1n7 (Heart, TAG): 57.3 nanomoles per gram
18:0 (Heart, TAG): 195.5 nanomoles per gram
18:1n7 (Heart, TAG): 28.0 nanomoles per gram
18:1n9 (Heart, TAG): 402.8 nanomoles per gram
14:0 (Heart, lipid class CE): 5.1 percentage of total fatty acids
16:0 (Heart, lipid class CE): 15.4 percentage of total fatty acids
16:1n7 (Heart, lipid class CE): 2.9 percentage of total fatty acids
18:0 (Heart, lipid class CE): 7.0 percentage of total fatty acids
18:1n7 (Heart, lipid class CE): 1.5 percentage of total fatty acids
18:1n9 (Heart, lipid class CE): 30.1 percentage of total fatty acids
Saturates (Heart, lipid class CE): 30.3 percentage of total fatty acids
Total (Heart, lipid class CE): 100.0 percentage of total fatty acids
Total n7 (Heart, lipid class CE): 4.4 percentage of total fatty acids
Total n9 (Heart, lipid class CE): 31.5 percentage of total fatty acids
14:0 (Heart, lipid class CL): 0.6 percentage of total fatty acids
16:0 (Heart, lipid class CL): 2.0 percentage of total fatty acids
16:1n7 (Heart, lipid class CL): 1.7 percentage of total fatty acids
18:0 (Heart, lipid class CL): 3.3 percentage of total fatty acids
18:1n7 (Heart, lipid class CL): 3.2 percentage of total fatty acids
18:1n9 (Heart, lipid class CL): 8.0 percentage of total fatty acids
Saturates (Heart, lipid class CL): 6.5 percentage of total fatty acids
Total (Heart, lipid class CL): 25.0 percentage of total fatty acids
Total n7 (Heart, lipid class CL): 4.9 percentage of total fatty acids
Total n9 (Heart, lipid class CL): 8.5 percentage of total fatty acids
14:0 (Heart, lipid class FFA): 2.9 percentage of total fatty acids
16:0 (Heart, lipid class FFA): 17.8 percentage of total fatty acids
16:1n7 (Heart, lipid class FFA): 2.3 percentage of total fatty acids
18:0 (Heart, lipid class FFA): 7.4 percentage of total fatty acids
18:1n7 (Heart, lipid class FFA): 2.2 percentage of total fatty acids
18:1n9 (Heart, lipid class FFA): 29.9 percentage of total fatty acids
Saturates (Heart, lipid class FFA): 29.2 percentage of total fatty acids
Total (Heart, lipid class FFA): 100.0 percentage of total fatty acids
Total n7 (Heart, lipid class FFA): 4.5 percentage of total fatty acids
Total n9 (Heart, lipid class FFA): 30.8 percentage of total fatty acids
14:0 (Heart, lipid class PC): 0.3 percentage of total fatty acids
16:0 (Heart, lipid class PC): 26.9 percentage of total fatty acids
16:1n7 (Heart, lipid class PC): 0.4 percentage of total fatty acids
18:0 (Heart, lipid class PC): 17.4 percentage of total fatty acids
18:1n7 (Heart, lipid class PC): 1.9 percentage of total fatty acids
18:1n9 (Heart, lipid class PC): 6.6 percentage of total fatty acids
Saturates (Heart, lipid class PC): 45.0 percentage of total fatty acids
Total (Heart, lipid class PC): 50.0 percentage of total fatty acids
Total n7 (Heart, lipid class PC): 2.2 percentage of total fatty acids
Total n9 (Heart, lipid class PC): 6.8 percentage of total fatty acids
14:0 (Heart, lipid class PE): 0.1 percentage of total fatty acids
16:0 (Heart, lipid class PE): 9.3 percentage of total fatty acids
16:1n7 (Heart, lipid class PE): 0.3 percentage of total fatty acids
18:0 (Heart, lipid class PE): 26.7 percentage of total fatty acids
18:1n7 (Heart, lipid class PE): 1.3 percentage of total fatty acids
18:1n9 (Heart, lipid class PE): 4.8 percentage of total fatty acids
Saturates (Heart, lipid class PE): 36.5 percentage of total fatty acids
Total (Heart, lipid class PE): 50.0 percentage of total fatty acids
Total n7 (Heart, lipid class PE): 1.6 percentage of total fatty acids
Total n9 (Heart, lipid class PE): 5.0 percentage of total fatty acids
14:0 (Heart, lipid class PL): 0.3 percentage of total fatty acids
16:0 (Heart, lipid class PL): 16.0 percentage of total fatty acids
16:1n7 (Heart, lipid class PL): 0.5 percentage of total fatty acids
18:0 (Heart, lipid class PL): 19.8 percentage of total fatty acids
18:1n7 (Heart, lipid class PL): 1.8 percentage of total fatty acids
18:1n9 (Heart, lipid class PL): 6.1 percentage of total fatty acids
Saturates (Heart, lipid class PL): 37.0 percentage of total fatty acids
Total (Heart, lipid class PL): 50.0 percentage of total fatty acids
Total n7 (Heart, lipid class PL): 2.3 percentage of total fatty acids
Total n9 (Heart, lipid class PL): 6.5 percentage of total fatty acids
14:0 (Heart, lipid class PS/I): 0.4 percentage of total fatty acids
16:0 (Heart, lipid class PS/I): 3.5 percentage of total fatty acids
16:1n7 (Heart, lipid class PS/I): 0.6 percentage of total fatty acids
18:0 (Heart, lipid class PS/I): 33.1 percentage of total fatty acids
18:1n7 (Heart, lipid class PS/I): 0.9 percentage of total fatty acids
18:1n9 (Heart, lipid class PS/I): 6.7 percentage of total fatty acids
Saturates (Heart, lipid class PS/I): 38.0 percentage of total fatty acids
Total (Heart, lipid class PS/I): 50.0 percentage of total fatty acids
Total n7 (Heart, lipid class PS/I): 1.4 percentage of total fatty acids
Total n9 (Heart, lipid class PS/I): 7.1 percentage of total fatty acids
14:0 (Heart, lipid class TAG): 4.1 percentage of total fatty acids
16:0 (Heart, lipid class TAG): 34.2 percentage of total fatty acids
16:1n7 (Heart, lipid class TAG): 2.9 percentage of total fatty acids
18:0 (Heart, lipid class TAG): 10.1 percentage of total fatty acids
18:1n7 (Heart, lipid class TAG): 1.5 percentage of total fatty acids
18:1n9 (Heart, lipid class TAG): 21.5 percentage of total fatty acids
Saturates (Heart, lipid class TAG): 51.9 percentage of total fatty acids
Total (Heart, lipid class TAG): 33.3 percentage of total fatty acids
Total n7 (Heart, lipid class TAG): 4.4 percentage of total fatty acids
Total n9 (Heart, lipid class TAG): 22.9 percentage of total fatty acids
14:0 (Liver, CE): 45.5 nanomoles per gram
16:0 (Liver, CE): 462.8 nanomoles per gram
16:1n7 (Liver, CE): 84.4 nanomoles per gram
18:0 (Liver, CE): 121.3 nanomoles per gram
18:1n7 (Liver, CE): 31.5 nanomoles per gram
18:1n9 (Liver, CE): 455.4 nanomoles per gram
Saturates (Liver, CE): 668.6 nanomoles per gram
Total n7 (Liver, CE): 115.9 nanomoles per gram
Total n9 (Liver, CE): 482.4 nanomoles per gram
Total nMole of FA (Liver, CE): 1764.6 nanomoles per gram
14:0 (Liver, CL): 21.3 nanomoles per gram
16:0 (Liver, CL): 254.3 nanomoles per gram
16:1n7 (Liver, CL): 85.8 nanomoles per gram
18:0 (Liver, CL): 260.0 nanomoles per gram
18:1n7 (Liver, CL): 215.4 nanomoles per gram
18:1n9 (Liver, CL): 437.0 nanomoles per gram
Saturates (Liver, CL): 556.4 nanomoles per gram
Total n7 (Liver, CL): 301.2 nanomoles per gram
Total n9 (Liver, CL): 473.0 nanomoles per gram
Total nMole of FA (Liver, CL): 1255.5 nanomoles per gram
14:0 (Liver, FFA): 152.9 nanomoles per gram
16:0 (Liver, FFA): 2280.7 nanomoles per gram
16:1n7 (Liver, FFA): 375.0 nanomoles per gram
18:0 (Liver, FFA): 460.2 nanomoles per gram
18:1n7 (Liver, FFA): 273.5 nanomoles per gram
18:1n9 (Liver, FFA): 2293.4 nanomoles per gram
Saturates (Liver, FFA): 2951.3 nanomoles per gram
Total n7 (Liver, FFA): 648.5 nanomoles per gram
Total n9 (Liver, FFA): 2337.2 nanomoles per gram
